Values after ≈ are worked out from the molar mass of the structure shown. Values joined by “and” are separate entries in the source; they are usually repeats but may differ in a detail not shown here. Equal values may be shown once. Read-outs that look alike come from different tables or passages of the source. Where no end group is shown, it is not given here.
What was measured:
[1] = Solubility of crystalline forms; assay type: physicochemical; conditions: room temperature, 24 hours
Description: The solubility described herein can be measured using the following procedure: • ii. Solubility Analysis Protocol • 1. No less than 2.0 mg samples are weighed into lower chamber of whatman miniuniprep vials (GE Healthcare). 450 μL of buffer was added into each chamber. • 2. Filter pistons of miniuniprep vials are placed and compressed to the position of the liquid level to allow for contact of buffer and compound with the filter during incubation. • 3. The samples are vortexed for 2 minutes followed by incubation at room temperature (about 25±2° C.) for 24 hours with shaking at 500 rpm. • 4. Miniunipreps are compressed to prepare the filtrates for injection into HPLC system. All vials are inspected for visible undissolved material before filtering and for leakage after filtering. • 5. Dilute supernatant with buffer by a factor of 100 folds to make diluents which are analyzed with HPLC.

ET-1 induced vasospasm = assay: Rabbit ET-1 induced vasospasm model, retinal blood flow (OCT-A, FA); assay type: in vivo, rabbit (Oryctolagus cuniculus)
Description: Adult, male Dutch-belted rabbits were given a 20 μl intravitreal injection (IVT) of 0.5 μg of ET-1 followed by a 20 μl intravitreal injection of 10-100 μg Edonentan given 30 min after the ET-1 administration. IOP, optical coherence tomography—angiography (OCT-A), and fluorescein angiograms (FA) were performed at pre-specified time points (30, 45, 60, and 75 min) following ET-1 and Edonentan administration to assess retinal blood flow changes induced by ET-1+/−Edonentan. […] To evaluate the effect of retinal blood flow following intravitreally administered endothelin-1 (ET-1) followed by the antagonist Edonentan in the rabbit, rabbits (Oryctolagus cuniculus) were given a 20 μL intravitreal injection of ET-1 in the left eye followed by a 20 μL intravitreal injection of Edonentan at 2 (or 3) different doses (e.g. 0.1 μg, 0.5 μg, 2.5 μg). The pulse ox, tonometry, optical coherence tomography angiography (OCTA), fluorescein angiography (FA) and retinal leakage scoring were performed for evaluation.

ETA receptor = target: T1, ETA receptor (Homo sapiens, UniProt P25101); assay: Functional potency for ETA receptor; assay type: biochemical
T1 sequence (P25101 21-427): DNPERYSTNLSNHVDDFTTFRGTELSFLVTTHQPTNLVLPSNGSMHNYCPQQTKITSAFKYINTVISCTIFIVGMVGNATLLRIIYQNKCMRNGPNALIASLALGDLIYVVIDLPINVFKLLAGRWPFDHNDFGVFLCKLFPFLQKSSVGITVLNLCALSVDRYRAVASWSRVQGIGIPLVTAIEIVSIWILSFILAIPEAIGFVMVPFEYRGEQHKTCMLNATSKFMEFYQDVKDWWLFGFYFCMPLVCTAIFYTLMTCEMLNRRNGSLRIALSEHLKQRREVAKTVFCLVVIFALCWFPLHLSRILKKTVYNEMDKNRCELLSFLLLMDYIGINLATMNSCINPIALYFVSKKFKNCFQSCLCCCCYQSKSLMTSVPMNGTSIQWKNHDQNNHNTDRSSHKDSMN
Excerpt: (§1) In the above table, the physicochemical data, e.g., solubility, were obtained following standard protocols known in the field (see, e.g., Reis et al., Mini Rev Med Chem., 2010, 10(11):1071-6; Avdeef et al., Expert Opin Drug Metab Toxicol., 2005, 1(2):325-42; Bharate et al., Comb Chem High Throughput Screen., 2016, 19(6):461-9; and Jain et al., J Pharm Biomed Anal., 2013, 86:11-35.); and the biochemical data, i.e., potency for ETA/ETB, were obtained following the protocols known in the field (see, e.g., Kirkby et al., Br J Pharmacol., 2008, 153(6):1105-19; and Maguire et al., Br J Pharmacol., 2014, 171(24):5555-72.).

[2] = Solubility (pH 2, pH 7, ethyl acetate); assay type: physicochemical
Excerpt: as §1

Stability in solid state = assay type: physicochemical; conditions: 2 h@125° C.
Excerpt: as §1

Permeability (PAMPA) = assay type: in vitro ADME
Excerpt: as §1

elevated IOP rat eye = assay: Morrison's rat model of glaucoma (RGC counts, PERG); assay type: in vivo, Brown Norway rats; conditions: topical eye drops 100 μg per dose, five days a week, four weeks
Excerpt: Adult male and female retired breeder Brown Norway rats (approximate age groups of 8 to 11 months) were obtained from Envigo (Indianapolis, IN). Baseline IOP measurements and pattern electroretinogram (PERG) amplitudes were collected prior to the surgery for elevation of IOP (to ensure that the IOP and PERG amplitudes were in the expected range of values). IOP was elevated in one eye (left eye) of the rats, while the corresponding right eyes served as contralateral controls. The Morrison method to elevate IOP in rats was carried out by injection of 50 μL of hypertonic saline through the episcleral veins to sclerose the trabecular meshwork. IOP was measured twice a week throughout the entire duration of the experiment. […] After detecting an elevation of IOP for two consecutive days, topical administration of eye drops ([…] (100 μg,) per dose of the tested compounds in the IOP elevated eye) was commenced and carried out for five days a week for a total of four weeks. In the 4th week of treatment, PERG analysis was carried out and rats were sacrificed by an overdose of pentobarbital (fatal-Plus). Aqueous humor was collected from the rat eyes, frozen and shipped for analysis. Retinal flat mounts were prepared, immunostained with the RGC marker, Brn3a antibody and surviving RG-Cs were counted in two eccentricities (central and peripheral).
For this study, the Morrison's model was used to induce ocular hypertension in adult male retired breeder Brown Norway rats as previously described by. Morrison et al., (Morrison J C, Moore C G, Deppmeier L M, Gold B G, Meshul C K, Johnson E C. A rat model of chronic pressure-induced optic nerve damage. Exp Eye Res. 1997;64(1):85-96).
The immunostained retinal flat mounts were obtained to measure the retinal ganglion cell (RGC) counts. To obtain immunostained retinal flat mounts, the animals were euthanized after the treatments and then their eyes were enucleated. The eye cups were fixed overnight at 4° C. in 4% paraformaldehyde (PFA) and retinal flat mounts were prepared for collecting images. The retinal ganglion cell (RGC) counting was conducted using the images of immunostained retinal flat mounts. The images were uploaded to ImageJ, a photo editor designed for biology research (Rasband, 1997-2018) and the labeled retinal ganglion cells were counted manually in two eccentricities (central and peripheral).
Pattern ERG (PERG) was used to assess the RGC function. […] Briefly, PERG signals were acquired from a DTL-plus electrode placed on the lower part of the corneal surface and the PERG waves were analyzed using the EMWIN software (LKC). The difference between the amplitude of the major positive (P1) and negative (N2) waves were calculated to decipher the PERG amplitude.

[3] = Pharmacokinetics after topical or oral administration in the rat; assay type: in vivo, Brown Norway rats
Description: After the administrations, the animals (N=2) were euthanized at different time points (e.g. 4 and 8 hours) and tissues were collected for analysis. List of tissues collected include plasma, retina/retinal pigment epithelium (RPE)/choroid, vitreous humor and aqueous humor.

ETA/ETB receptor = conditions: cited from earlier work
[4] = tested on: laser-induced glaucoma eye; assay: Laser-induced glaucoma non-human primate, intraocular pressure after topical administration; assay type: in vivo, rhesus macaque, Macaca Mulatta; conditions: single dose 50 μL topical 0.5% in each eye, 120 minutes
Description: Non-human primates (rhesus macaque, Macaca Mulatta) were obtained for this study. One eye of each animal underwent induction of elevation of intraocular pressure (TOP) by repeated laser photocoagulation of the trabecular meshwork. Imaging sessions were repeated to monitor the optic nerve head (ONH) and retinal structural changes. A single dose of 0.5% Timolol or a single dose of 2 mg/mL Edonentan was topically administered to three non-human primates that have laser-induced glaucoma in their right eyes (OD) with 1-week wash-out in a randomized order.

[5] = Slurry conversion of crystalline forms (relative thermodynamic stability); assay type: physicochemical
Description: In an alternate method, 150 mg of Edonentan (Form 3) was added to a mixture of isopropanol and water (1 mL and 2 mL, respectively). The resulting slurry was stirred at 15° C. for 48 hours and then filtered.
In an alternate method, 200 mg of Edonentan (Form 1) was added to a mixture of isopropanol and water (1.3 mL and 2.6 mL, respectively). The resulting solution was heated to 80° C. and stirred for 24 h, then cooled and filtered.

Q: With Cc1onc(NS(=O)(=O)c2ccccc2-c2ccc(-c3ncco3)cc2CN(C)C(=O)CC(C)(C)C)c1C [Form 2] as the compound, how does the “Solubility pH 7.0 Phosphate Buffer” value [1] read?
A: Its value is 35 μg/mL.

Q: Which “Vasoconstriction in the retinal vascular beds” value (ET-1 induced vasospasm; 0.5 μg ET-1 IVT, within 45 min) does the source give for “ET-1: Endothelin-1, given intravitreally to induce vasospasm in rabbit retina (CSCSSLMDKECVYFCHLDIIW; ends and bridges not checked; cysteine pairing not given here; UniProt P05305 53-73, looked up) [reference compound]” here?
A: The value was “induced a clear vasoconstriction”.

Q: Which “Solubility pH 7.0 Phosphate Buffer” value [1] does the source give for Cc1onc(NS(=O)(=O)c2ccccc2-c2ccc(-c3ncco3)cc2CN(C)C(=O)CC(C)(C)C)c1C [Form 3] here?
A: The value was 251 μg/mL.

Q: What does the source list for CCCCCS(=O)(=O)N(CCC)CCN1C[C@H](c2ccc3c(c2)OCO3)[C@@H](C(=O)O)[C@@H]1c1ccc(OC)c(F)c1 [A-182086, (2R,3R,4S)-4-(2H-1,3-benzodioxol-5-yl)-2-(3-fluoro-4-methoxyphenyl)-1-[2-(N-propylpentane-1-sulfonamido)ethyl]pyrrolidine-3-carboxylic acid]?
A: Functional potency for ETA and ETB receptors (rating) (ETA receptor): High potency; Specificity ETA vs ETB (rating) (ETA receptor): Low specificity; Solubility in Ethyl Acetate (rating) ([2]; ethyl acetate): Good; solubility ([2]; ethyl acetate, organic solvent or mixture, read-out: Solubility in Ethyl Acetate): > 10600 µg/mL and > 18400 µM; solubility ([2]; pH 2, read-out: Solubility at pH 2): 159.8 µM (≈ 92.5 µg/mL); Solubility at pH 7 ([2]; pH 7, amorphous form): 298.4 μM; Stability in Solid State (verdict) (Stability in solid state): unstable; Stability in Solid State, remaining (Stability in solid state): about 87% remaining/; Permeability (rating) (Permeability (PAMPA)): Mid-High; Fluorescein dye velocity as an index of retinal blood flow (ET-1 induced vasospasm; healthy rabbits, 0.5 μg ET-1 and 10 μg antagonist IVT (FIG. 3)): improved to control levels; RGC function (PERG) (elevated IOP rat eye): maintained RGC function; RGC loss (RGC counts, retinal flat mounts) (elevated IOP rat eye): prevented RGC loss; Detection in retina/RPE/choroid after oral administration ([3]; oral, 50 mg/kg): detectable; Detection in retina/RPE/choroid, aqueous humor and vitreous humor ([3]; topical eye drop 100 μg, 4 and 8 hours): detected; ETA/ETB selectivity (ETA/ETB receptor): 4 fold

Q: For CC(C)(C)NC[C@H](O)COc1nsnc1N1CCOCC1 [Timolol, reference compound], which “IOP reduction from pre-dose to post-dose” value ([4]; Control 1) is on record?
A: The value was “about 20%”.

Q: And the “IOP reduction from pre-dose to post-dose” value ([4]; Control 2)?
A: Its value is “about 30%”.

Q: Which “Solubility pH 7.0 Phosphate Buffer” value [1] does the source give for Cc1onc(NS(=O)(=O)c2ccccc2-c2ccc(-c3ncco3)cc2CN(C)C(=O)CC(C)(C)C)c1C [Form 1] here?
A: The value was 264 μg/mL.

Q: Which results are given for Cc1onc(NS(=O)(=O)c2ccccc2-c2ccc(-c3ncco3)cc2CN(C)C(=O)CC(C)(C)C)c1C [Form 4]?
A: Solubility pH 7.0 Phosphate Buffer [1]: 138 μg/mL; Relative thermodynamic stability of crystalline form ([5]; isopropanol and water, 80° C., 24 h): more thermodynamically stable than Form 1; Relative thermodynamic stability of crystalline form ([5]; slurry in isopropanol and water, 15° C., 48 hours): more thermodynamically stable than Form 3
